Measurements reported in patent publication US12208071B2, “Glucagon receptor antagonists” (LIGAND PHARMACEUTICALS INCORPORATED, priority 2018, dated 2025).
Entries after “also recorded” stand apart in the source; their conditions may differ.

Experiments:
[1] = Aqueous solubility, 24 hours at 25° C., HPLC; format: physicochemical; conditions: for solubility at 24 h: 25 °C, thermodynamic from solid; for solubility at 24 h / Solubility: 24 hours at 25° C., n = 2
Method: The testing media: Water, pH 4.0, 6.8, 7.4, 10.0 USP buffers (50 mM), 0.1N HCl, 0.01N HCl, SGF, FaSSIF, FeSSIF.
About 10 mg of Polymorph Form A was weighed and added to a 1.5 mL vial, and then 1.0 mL of aqueous media was added into the vial. The vial was shaken for 24 hours at 25° C. After equilibration for 24 hours, the mixture was centrifuged at 14000 rpm for 10 mins. The concentration of supernatant was checked by HPLC and the residuals were checked by XRPD. The final pH of supernatant was recorded. Experiments were conducted in duplicate.

[2] = Long-term stability (ICH), 25° C./60% RH; format: physicochemical; conditions: 25° C./60% RH
Method: Polymorph Form A was manufactured under Good Manufacturing Practices (GMP)-compliant conditions at a scale of 1.26 kg. The container closure for the batch consisted of double-lined low density polyethylene bags placed inside fiberboard drums, and the batch was on ICH stability under storage conditions of 25° C./60% relative humidity (RH) and 40° C./75% RH. Long-term stability data through the 36-month interval and accelerated stability data through the 6-month interval are shown in Tables 2 and 3.
Stability samples were tested according to the protocol (Table 5) and to the same specification as the drug substance. The available stability data for samples stored at 25° C./60% RH and 40° C./75% RH are summarized.

Form (XRPD of residual after solubility test) ([1]; 0.01N HCl): Form A
solubility at 24 h ([1]; 0.01N HCl, pH 2.24, simulated gastric fluid, initial pH 1.97, final pH 2.24): < 100 µg/mL
Solubility ([1]; 0.01N HCl, initial pH 1.97, final pH 2.24): 70 ± 0 µg/mL
Form (XRPD of residual after solubility test) ([1]; 0.1N HCl): Form A
solubility at 24 h ([1]; 0.1N HCl, pH 1.08, simulated gastric fluid, initial pH 1.02, final pH 1.08): < 100 µg/mL
Solubility ([1]; 0.1N HCl, initial pH 1.02, final pH 1.08): 60 ± 0 µg/mL
Form (XRPD of residual after solubility test) ([1]; FaSSIF): Form A
Form (XRPD of residual after solubility test) ([1]; FeSSIF): Form A
Form (XRPD of residual after solubility test) ([1]; SGF): Form A
solubility at 24 h ([1]; pH 4.0 USP buffer (50 mM), pH 4, aqueous buffer, pH 4.0 buffer, initial pH 4.05, final pH 4.13): < 100 µg/mL
Form (XRPD of residual after solubility test) ([1]; pH 4.0 buffer): Form A
Solubility ([1]; pH 4.0 buffer, initial pH 4.05, final pH 4.13): 50 ± 10 µg/mL
solubility at 24 h ([1]; pH 6.8 USP buffer (50 mM), pH 6.8, aqueous buffer, pH 6.8 buffer, initial pH 6.84, final pH 6.87): < 100 µg/mL
Form (XRPD of residual after solubility test) ([1]; pH 6.8 buffer): Form A
Solubility ([1]; pH 6.8 buffer, initial pH 6.84, final pH 6.87): 50 ± 0 µg/mL
solubility at 24 h ([1]; pH 7.4 USP buffer (50 mM), pH 7.4, aqueous buffer, pH 7.4 buffer, initial pH 7.43, final pH 7.46): < 100 µg/mL
Form (XRPD of residual after solubility test) ([1]; pH 7.4 buffer): Form A
Solubility ([1]; pH 7.4 buffer, initial pH 7.43, final pH 7.46): 60 ± 10 µg/mL
Form (XRPD of residual after solubility test) ([1]; pH 10.0 buffer): Form A
Form (XRPD of residual after solubility test) ([1]; water): Form A
Appearance ([2]; 0 months): White
Assay (anhydrous w/w %) ([2]; 0 months): 101.3 w/w %
Chiral purity (area %) ([2]; 0 months): 99.9 area %
Individual related substance (area %, w/w), RRT 0.46 ([2]; 0 months): 0.08 area %, w/w
Individual related substance (area %, w/w), RRT 0.64 ([2]; 0 months): 0.12 area %, w/w
Individual related substance (area %, w/w), RRT 1.20 ([2]; 0 months): 0.05 area %, w/w
Purity (% area) ([2]; 0 months): 99.8 % area
Total related substances ([2]; 0 months): 0.25%
Water content (%) ([2]; 0 months): 2.1%
Appearance ([2]; 3 months): White
Assay (anhydrous w/w %) ([2]; 3 months): 102.5 w/w %
Chiral purity (area %) ([2]; 3 months): 99.8 area %
Individual related substance (area %, w/w), RRT 0.46 ([2]; 3 months): 0.08 area %, w/w
Individual related substance (area %, w/w), RRT 0.64 ([2]; 3 months): 0.12 area %, w/w
Individual related substance (area %, w/w), RRT 1.20 ([2]; 3 months): 0.05 area %, w/w
Purity (% area) ([2]; 3 months): 99.8 % area
Total related substances ([2]; 3 months): 0.25%
Water content (%) ([2]; 3 months): 6.1%
Appearance ([2]; 6 months): White
Assay (anhydrous w/w %) ([2]; 6 months): 101.1 w/w %
Chiral purity (area %) ([2]; 6 months): 99.8 area %
Individual related substance (area %, w/w), RRT 0.46 ([2]; 6 months): 0.08 area %, w/w
Individual related substance (area %, w/w), RRT 0.64 ([2]; 6 months): 0.11 area %, w/w
Individual related substance (area %, w/w), RRT 1.20 ([2]; 6 months): 0.05 area %, w/w
Purity (% area) ([2]; 6 months): 99.8 % area
Total related substances ([2]; 6 months): 0.24%
Water content (%) ([2]; 6 months): 6.5%
XRPD ([2]; 6 months): Same
Appearance ([2]; 9 months): White
Assay (anhydrous w/w %) ([2]; 9 months): 101.1 w/w %
Chiral purity (area %) ([2]; 9 months): 99.6 area %
Individual related substance (area %, w/w), RRT 0.46 ([2]; 9 months): 0.08 area %, w/w
Individual related substance (area %, w/w), RRT 0.64 ([2]; 9 months): 0.12 area %, w/w
Individual related substance (area %, w/w), RRT 1.20 ([2]; 9 months): 0.05 area %, w/w
Purity (% area) ([2]; 9 months): 99.8 % area
Total related substances ([2]; 9 months): 0.25%
Water content (%) ([2]; 9 months): 6.7%
Appearance ([2]; 12 months): White
Assay (anhydrous w/w %) ([2]; 12 months): 101.0 w/w %
Chiral purity (area %) ([2]; 12 months): 99.4 area %
Structure (SMILES): Cc1cc(C)c(-c2ccc(NC(=O)[C@H](Cc3ccc(C(=O)NCCS(=O)(=O)[O-])cc3)c3ccc(-c4ccc(C(C)(C)C)cc4)cc3)cc2)c(C)c1.[Na+] [Polymorph Form A, Sodium (R)-2-(4-(2-(4′-(tert-butyl)-[1,1′-biphenyl]-4-yl)-3-oxo-3-((2′,4′,6′-trimethyl-[1,1′-biphenyl]-4-yl)amino)propyl)benzamido)ethane-1-sulfonate]
XRPD after solubility test (overall) ([1]; all aqueous media): no new forms were found; also recorded: no change
